Measured values as given in PubChem BioAssay AID652218 (The Scripps Research Institute Molecular Screening Center, 2013).
Calls of active or inactive are those of the source.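 Rule for the calls: active = inhibition of the phosphatase PP1 of at least 70% at 50 µM; inactive = the rest.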

Target: Serine/threonine-protein phosphatase PP1-alpha catalytic subunit (Homo sapiens) (UniProt P62136)
Assay: PP1 inhibitors, OMFP dephosphorylation, confirmation, biochemical, fluorescence, OMFP substrate, powder samples, set 2 (AID 652218)
Conditions: purified PP1alpha, at 50 µM, active compounds read high

Serine/threonine-protein phosphatase PP1-alpha catalytic subunit (Homo sapiens), sequence (P62136 whole entry, looked up): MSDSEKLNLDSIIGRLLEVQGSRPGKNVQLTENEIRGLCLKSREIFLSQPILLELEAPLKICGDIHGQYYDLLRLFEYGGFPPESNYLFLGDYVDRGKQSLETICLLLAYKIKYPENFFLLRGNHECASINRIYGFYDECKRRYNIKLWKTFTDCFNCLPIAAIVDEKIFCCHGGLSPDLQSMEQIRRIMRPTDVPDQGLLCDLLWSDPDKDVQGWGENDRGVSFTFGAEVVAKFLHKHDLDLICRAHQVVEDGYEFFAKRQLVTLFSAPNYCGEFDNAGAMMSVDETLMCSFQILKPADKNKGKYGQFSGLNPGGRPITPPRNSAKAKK

SMILES	inhibition
Oc1c(CN2CCN(c3ccccn3)CC2)cc(Cl)c2cccnc12	102%
Oc1c(C(c2ccccn2)N2CCOCC2)cc(Cl)c2cccnc12 (stereo unspecified)	105%
CN1CCC(NC(c2ccccn2)c2ccc3cccnc3c2O)CC1 (stereo unspecified)	97.3%
CCOC(c1ccccn1)c1cc(Cl)c2cccnc2c1O (stereo unspecified)	99%
CN1CCN(Cc2cc(Cl)c3cccnc3c2O)CC1	73.1%
Oc1c(CN2CCN(c3ccccc3)CC2)cc(Cl)c2cccnc12	100%
CN1CCN(C(c2ccccn2)c2cc(Cl)c3ccccc3c2O)CC1 (stereo unspecified)	27.2% (inactive)
Oc1c(C(c2ccccn2)N2CCCC2)ccc2cccnc12 (stereo unspecified)	107%
Oc1c(C(NC2CCCCC2)c2ccccn2)ccc2cccnc12 (stereo unspecified)	106%
Oc1c(C(c2ccccn2)N2CCC(Cc3ccccc3)CC2)cc(Cl)c2cccnc12 (stereo unspecified)	89.3%
CN1CCN(C(c2ccccc2)c2cc(Cl)c3cccnc3c2O)CC1 (stereo unspecified)	79.1%
CC(C)(C)OC(=O)N1CCN(C(c2ccccn2)c2cc(Cl)c3cccnc3c2O)CC1 (stereo unspecified)	90.5%
CCN1CCN(C(c2ccccn2)c2cc(Cl)c3cccnc3c2O)CC1 (stereo unspecified)	98.4%
CN1CCN(C(c2ccccn2)c2cc(Cl)ccc2O)CC1 (stereo unspecified)	6.19% (inactive)
Oc1c(C(c2ccccn2)N2CCNCC2)cc(Cl)c2cccnc12 (stereo unspecified)	83.5%
Oc1c(C(c2ccccn2)N2CCN(c3ccccc3F)CC2)cc(Cl)c2cccnc12 (stereo unspecified)	101%
Oc1c(Cc2ccccn2)ccc2cccnc12	102%
CN1CCN(C(c2nccs2)c2cc(Cl)c3cccnc3c2O)CC1 (stereo unspecified)	103%
CC1CCN(C(c2ccccn2)c2cc(Cl)c3cccnc3c2O)CC1 (stereo unspecified)	104%
CN1CCN(C(c2ccncc2)c2cc(Cl)c3cccnc3c2O)CC1 (stereo unspecified)	45% (inactive)
CN1CCN(C(c2cccnc2)c2cc(Cl)c3cccnc3c2O)CC1 (stereo unspecified)	40% (inactive)
COCOc1c(C(c2ccccn2)N2CCN(C)CC2)ccc2cccnc12 (stereo unspecified)	66.1% (inactive)
CN1CCN(C(c2ccccn2)c2cc(Cl)c3cccnc3c2O)CC1 (stereo unspecified)	98.4%
CN1CCN(C(c2cccs2)c2cc(Cl)c3cccnc3c2O)CC1 (stereo unspecified)	88.6%

Continued, values first:

inhibition	SMILES
104%	Cc1ccc(C(c2ccc3cccnc3c2O)N2CCN(C)CC2)nc1 (stereo unspecified)
97.9%	COc1ccc(C(c2ccc3cccnc3c2O)N2CCN(C)CC2)nc1 (stereo unspecified)
99.9%	Cc1cccnc1C(c1ccc2cccnc2c1O)N1CCN(C)CC1 (stereo unspecified)
102%	CN1CCN(C(c2ccc3cccnc3c2O)c2ncccc2C(F)(F)F)CC1 (stereo unspecified)
93.8%	CN1CCN(C(c2ncccn2)c2ccc3cccnc3c2O)CC1 (stereo unspecified)
99.8%	CN1CCN(C(c2ccc(C(F)(F)F)cn2)c2ccc3cccnc3c2O)CC1 (stereo unspecified)
103%	Cc1cccc(C(c2ccc3cccnc3c2O)N2CCN(C)CC2)n1 (stereo unspecified)
100%	CN1CCN(C(c2ccccn2)c2ccc3cccnc3c2O)CC1 (stereo unspecified)
104%	COc1ccnc(C(c2ccc3cccnc3c2O)N2CCN(C)CC2)c1 (stereo unspecified)
107%	COc1cccc(C(c2ccc3cccnc3c2O)N2CCN(C)CC2)n1 (stereo unspecified)
101%	Cc1ccc2ccc(C(c3ccccn3)N3CCN(C)CC3)c(O)c2n1 (stereo unspecified)
104%	Cc1ccnc(C(c2ccc3cccnc3c2O)N2CCN(C)CC2)c1 (stereo unspecified)
